Data as given in PubChem BioAssay (NCI).
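How tested: cells in 96-well plates exposed to compound for 48 hours at five concentrations. Abbreviation: GI50, concentration required for 50% inhibition of growth. TGI is the concentration that stops growth completely.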

How the values were obtained:
Assay in all cases: NCI anticancer screen, dose series, 48 h
LOX IMVI melanoma = tested on: LOX IMVI melanoma
RXF 393 renal = tested on: RXF 393 renal
RPMI-8226 leukemia = tested on: RPMI-8226 leukemia
SK-MEL-5 melanoma = tested on: SK-MEL-5 melanoma
A498 renal = tested on: A498 renal
SN12C renal = tested on: SN12C renal
SF-268 CNS = tested on: SF-268 CNS
NCI/ADR-RES ovarian = tested on: NCI/ADR-RES ovarian
NCI-H522 lung = tested on: NCI-H522 lung
T-47D breast = tested on: T-47D breast

Row | Compound | TGI (LOX IMVI melanoma) [µM] | TGI (RXF 393 renal) [µM] | TGI (RPMI-8226 leukemia) [µM] | TGI (SK-MEL-5 melanoma) [µM] | TGI (A498 renal) [µM] | TGI (SN12C renal) [µM] | TGI (SF-268 CNS) [µM] | TGI (NCI/ADR-RES ovarian) [µM] | TGI (NCI-H522 lung) [µM] | TGI (T-47D breast) [µM] | GI50 (LOX IMVI melanoma) [µM] | GI50 (RXF 393 renal) [µM] | GI50 (RPMI-8226 leukemia) [µM] | GI50 (SK-MEL-5 melanoma) [µM] | GI50 (A498 renal) [µM] | GI50 (SN12C renal) [µM] | GI50 (SF-268 CNS) [µM] | GI50 (NCI/ADR-RES ovarian) [µM] | GI50 (NCI-H522 lung) [µM]
1 | CCCCCCc1cn([C@H]2C[C@H](O)[C@@H](CO)O2)c(=O)[nH]c1=O | > 100 | > 100 | > 100 | > 100 | > 100 | > 100 | > 100 | > 100 | > 100 | – | – | – | – | – | – | – | – | – | –
2 | CN(C)C=Nc1nncc2n[nH]nc12 | – | > 100 | > 100 | > 100 | > 100 | > 100 | > 100 | > 100 | – | > 100 | – | – | – | – | – | – | – | – | –
3 | CCC1CCC2c3c([nH]c4ccccc34)C3C(=O)N(c4ccc(OC)cc4)C(=O)C3C2C1 (stereo unspecified) | – | > 100 | > 100 | > 100 | – | > 100 | > 100 | > 100 | > 100 | 55.8 | – | – | – | – | – | – | – | – | –
4 | COc1ccc(C(C)NNC(=O)c2ccncc2)cc1F (stereo unspecified) | > 100 | > 100 | > 100 | > 100 | > 100 | > 100 | > 100 | > 100 | – | > 100 | – | – | – | – | – | – | – | – | –
5 | O=S(=O)(/N=C1/SC(=Nc2ccccc2)N(c2ccccc2)/C1=N/S(=O)(=O)c1ccccc1)c1ccccc1 | – | – | 44.6 | 31.3 | 37.6 | 31.5 | – | – | – | – | – | – | – | – | – | – | – | – | –
6 | COc1ccc(N2C(=O)/C(=C/c3ccc(N(CCC#N)CCC#N)cc3)N=C2c2ccccc2)c(OC)c1 | – | – | > 100 | > 100 | – | > 100 | > 100 | > 100 | 74.1 | 69.5 | – | – | – | – | – | – | – | – | –
7 | CCOC(=O)c1cn(C)nc1N/C(C)=C\C(=O)c1ccccc1 | > 100 | – | – | > 100 | – | > 100 | > 100 | > 100 | > 100 | > 100 | – | – | – | – | – | – | – | – | –
8 | NC1CCCCC1N.O=S(=O)([O-])CCCN1CCN(CCO)CC1.O=S(=O)([O-])CCCN1CCN(CCO)CC1.[Pt+4] | > 100 | 82.5 | 20.5 | 17.2 | > 100 | > 100 | > 78 | > 37 | 17.9 | – | 5.97 | 15.9 | 0.423 | 2.57 | 6.05 | 7.56 | 3.72 | 1.47 | 2.73
9 | c1ccc(-c2[nH]c(-c3ccccc3)c(-c3cnccn3)c2-c2cnccn2)cc1 | > 100 | > 100 | > 100 | > 100 | > 100 | > 100 | > 100 | – | > 100 | – | – | – | – | – | – | – | – | – | –
10 | CC(=O)O[C@H]1C(=O)[C@@]2(C)C(C(OC(=O)c3ccccc3)[C@]3(O)CC(OC(=O)C(O)C(NC(=O)c4ccccc4)c4ccc(C)cc4)C(C)=C1C3(C)C)[C@]1(OC(C)=O)CO[C@@H]1C[C@@H]2O (stereo partly specified) | 6.75 | 0.13 | 7.56 | – | > 25 | > 25 | > 25 | – | 0.0396 | – | – | – | – | – | – | – | – | – | –
11 | C=C1C(=O)O[C@H]2C/C(C=O)=C\[C@H]3O[C@H]3/C(COC(=O)C(C)C)=C/CC12 (stereo partly specified) | 11.8 | 14 | 7.61 | 22.2 | – | 7.11 | – | 33.8 | 10.5 | 7 | – | – | – | – | – | – | – | – | –
12 | CCOC(=O)C1=C(C)N(c2ccc(C)cc2)C2(O)C=CC(=O)C3=C(O)c4ccccc4C(=O)C312 (stereo unspecified) | 96.8 | 62.1 | 53.5 | 42.1 | 67.9 | > 100 | > 100 | > 100 | 34.7 | – | – | – | – | – | – | – | – | – | –
13 | O=C(NCCCCNCCCNC(=O)OCc1ccccc1)OCc1ccccc1 | – | 66.6 | > 100 | 32.5 | 36.8 | > 100 | > 100 | > 100 | 39.2 | 57.8 | – | – | – | – | – | – | – | – | –
14 | COc1ccc(NS(=O)c2cccc(C)c2)cc1 (stereo unspecified) | > 100 | > 100 | > 100 | 75 | – | > 100 | > 100 | > 100 | > 100 | – | – | – | – | – | – | – | – | – | –
15 | CCOC(=O)c1c(-c2ccc(OC)c(O)c2)c(C#N)c(=S)n(C2OC(CO)C(O)C(O)C2O)c1-c1ccccc1 (stereo unspecified) | > 100 | > 100 | > 100 | > 100 | > 100 | > 100 | > 100 | > 100 | – | – | – | – | – | – | – | – | – | – | –
16 | CC(C)c1nccn1Cc1ccc(Cl)cc1Cl | > 100 | – | 57.8 | 34.9 | > 100 | 88.7 | > 100 | > 100 | 97.9 | – | – | – | – | – | – | – | – | – | –
17 | CC1OC=CC(=O)C1O (stereo unspecified) | > 100 | > 100 | – | > 100 | – | > 100 | – | – | > 100 | – | – | – | – | – | – | – | – | – | –
18 | Cc1cccc(C(O)c2cccnc2)c1O (stereo unspecified) | > 100 | > 100 | > 100 | > 100 | – | > 100 | > 100 | > 100 | > 100 | > 100 | – | – | – | – | – | – | – | – | –
19 | CN(CCN(C)C(=O)CCn1ccc(=O)[nH]c1=O)C(=O)CCn1ccc(=O)[nH]c1=O | > 100 | > 100 | > 100 | > 100 | – | > 100 | > 100 | – | > 100 | – | – | – | – | – | – | – | – | – | –
20 | O=C(Nc1nc(C23CC4CC(CC(C4)C2)C3)cs1)c1cc2cc([N+](=O)[O-])ccc2oc1=O | > 100 | 74.8 | > 100 | 96.9 | > 100 | > 100 | > 100 | > 100 | > 100 | – | – | – | – | – | – | – | – | – | –
21 | C=C1C(=O)O[C@H]2[C@H]([C@H](C)CCCC(C)=O)O[C@H]([C@@]3(C)CCC(=O)O3)C[C@@H]12 | 64.4 | – | > 100 | > 100 | > 100 | > 100 | 9.34 | > 100 | 64.8 | > 100 | – | – | – | – | – | – | – | – | –
22 | CCOC(=O)N1C(=S)C(C(=O)OC)(C(=O)OC)N=C1C | > 100 | > 100 | > 100 | > 100 | > 100 | > 100 | – | > 100 | – | > 100 | – | – | – | – | – | – | – | – | –
23 | CC1(C)N=C(N)N=C(N)N1c1ccc(OCCCOc2ccccc2)c(Cl)c1 | 13.7 | 22.8 | 28.9 | 3 | 30.2 | 14.9 | 13.5 | > 100 | 8.39 | – | – | – | – | – | – | – | – | – | –
